According to the supplement of paper PMC13380429:
± gives the standard deviation of the averaged measurements.

Key:
Conditions in all cases: 72 h
Caco-2 [1] = assay: drug sensitivity score (DSS) for viability; higher = more toxic; extreme values may be limits of the assay
Vero E6 [2] = assay: as above
HepG2 [3] = assay: as above
Calu-3 [4] = assay: as above
U2OS [5] = assay: as above
Caco-2 [6] = assay: relative viability EC50 (midpoint between 100% and the lowest measured viability); higher = less toxic
Vero E6 [7] = assay: as above
HepG2 [8] = assay: as above
Calu-3 [9] = assay: as above
U2OS [10] = assay: as above
Caco-2 [11] = assay: cell viability relative to DMSO; higher = less toxic
Vero E6 [12] = assay: as above
HepG2 [13] = assay: as above
Calu-3 [14] = assay: as above
U2OS [15] = assay: as above

| SMILES | drug sensitivity score (Caco-2 [1]) | drug sensitivity score (Vero E6 [2]) | drug sensitivity score (HepG2 [3]) | drug sensitivity score (Calu-3 [4]) | drug sensitivity score (U2OS [5]) | relative viability EC50 (Caco-2 [6]) [µM] | relative viability EC50 (Vero E6 [7]) [µM] | relative viability EC50 (HepG2 [8]) [µM] | relative viability EC50 (Calu-3 [9]) [µM] | relative viability EC50 (U2OS [10]) [µM] | cell viability (Caco-2 [11]; 1 nM) [%] | cell viability (Caco-2 [11]; 10 nM) [%] | cell viability (Caco-2 [11]; 100 nM) [%] | cell viability (Caco-2 [11]; 1000 nM) [%] | cell viability (Caco-2 [11]; 10000 nM) [%] | cell viability (Vero E6 [12]; 1 nM) [%] | cell viability (Vero E6 [12]; 10 nM) [%] | cell viability (Vero E6 [12]; 100 nM) [%] | cell viability (Vero E6 [12]; 1000 nM) [%] | cell viability (Vero E6 [12]; 10000 nM) [%] | cell viability (HepG2 [13]; 1 nM) [%] | cell viability (HepG2 [13]; 10 nM) [%] | cell viability (HepG2 [13]; 100 nM) [%] | cell viability (HepG2 [13]; 1000 nM) [%] | cell viability (HepG2 [13]; 10000 nM) [%] | cell viability (Calu-3 [14]; 1 nM) [%] | cell viability (Calu-3 [14]; 10 nM) [%] | cell viability (Calu-3 [14]; 100 nM) [%] | cell viability (Calu-3 [14]; 1000 nM) [%] | cell viability (Calu-3 [14]; 10000 nM) [%] | cell viability (U2OS [15]; 1 nM) [%] | cell viability (U2OS [15]; 10 nM) [%] | cell viability (U2OS [15]; 100 nM) [%] | cell viability (U2OS [15]; 1000 nM) [%] | cell viability (U2OS [15]; 10000 nM) [%] |
| --- | --- | --- | --- | --- | --- | --- | --- | --- | --- | --- | --- | --- | --- | --- | --- | --- | --- | --- | --- | --- | --- | --- | --- | --- | --- | --- | --- | --- | --- | --- | --- | --- | --- | --- | --- |
| COc1ccc(NC(=O)c2ccc(C(=N)N(C)C)cc2)c(C(=O)Nc2ccc(Cl)cn2)c1 [betrixaban] | 0 | 0 | 0 | 0 | 0 | > 10 | > 10 | > 10 | > 10 | > 10 | 101 | 97.5 | 97.5 | 97.6 | 91.5 | 98.7 | 99.1 | 97.3 | 96.4 | 93.9 | 98.6 | 100 | 105 | 96.3 | 100 | 90.9 | 101 | 105 | 95.1 | 95.5 | 96.2 | 100 | 95.6 | 100 | 97.8 |
| N#Cc1c[nH]c2c(C(=O)N3CCN(CCc4ccc(F)cc4)CC3)cccc12 [pruvanserin] | 0 | 0 | 0 | 0 | 0 | > 10 | > 10 | > 10 | > 10 | > 10 | 94.9 | 95.3 | 96.9 | 98.1 | 95.7 | 105 | 86.8 | 102 | 95.2 | 98.4 | 103 | 110 | 117 | 98.1 | 99.3 | 91.8 | 112 | 91.4 | 112 | 101 | 94 | 98.4 | 92.5 | 104 | 100 |
| CCC(C(=O)O)c1ccc(CC(C)C)cc1 (stereo not given) [butibufen] | 0 | 0 | 0 | 0 | 0 | > 10 | > 10 | > 10 | > 10 | > 10 | 102 | 92.8 | 103 | 94.4 | 99.3 | 93.3 | 92.5 | 87.6 | 95.9 | 105 | 107 | 101 | 99 | 110 | 106 | 97.1 | 105 | 99.9 | 113 | 105 | 97.4 | 95.5 | 97.9 | 102 | 104 |
| COc1cc2c(cc1OC)C1CC(=O)C(CC(C)C)CN1CC2 (stereo not given) [tetrabenazine] | 0 | 0 | 0 | 0 | 0 | > 10 | > 10 | > 10 | > 10 | > 10 | 97.6 | 99.3 | 96.3 | 96.5 | 100 | 96.6 | 97.8 | 96.2 | 99.1 | 95 | 95.1 | 99.4 | 98.8 | 99.9 | 105 | 107 | 103 | 96.3 | 105 | 104 | 95.9 | 99.3 | 94.7 | 93.9 | 103 |
| COc1cc(C(C)=O)ccc1O [apocynin] | 0 | 0 | 0 | 0 | 0 | > 10 | > 10 | > 10 | > 10 | > 10 | 104 | 94.2 | 100 | 86.8 | 93.9 | 97.8 | 100 | 96.6 | 98.8 | 93.6 | 95.8 | 95.8 | 104 | 98.8 | 96.8 | 95.2 | 89.6 | 91.5 | 89.5 | 105 | 99.8 | 97.9 | 101 | 96.2 | 98.2 |
| Cc1ccc2c(c1)C(=O)[C@]1(O)CCN(c3ccccc3)C1=N2 (racemic) [blebbistatin-(+/-)] | 0.3 ± 0.42 | 0.15 ± 0.21 | 0 | 0 | 0.05 ± 0.071 | > 10 | > 10 | > 10 | > 10 | > 10 | 100 ± 2.5 | 97.25 ± 0.49 | 97.9 ± 2.1 | 98.5 ± 1.1 | 94.2 ± 16 | 98.6 ± 0.99 | 96.6 ± 4.5 | 96.4 ± 4.4 | 95.5 ± 3.9 | 93.4 ± 10 | 98 ± 1.3 | 88.2 ± 0.92 | 98.3 ± 8.3 | 89 ± 9.6 | 96 ± 7 | 99 ± 11 | 95.9 ± 0.28 | 95.5 ± 10 | 109 ± 3.2 | 136 ± 9.8 | 99.4 ± 1.6 | 101.2 ± 0.78 | 97.8 ± 1.8 | 99.85 ± 0.35 | 95.2 ± 12 |
| COc1ccc(CCNCc2ccc(OCc3ccc(Cl)nc3)c(OC)c2)cc1OC [SBE-13] | 0 | 0 | 0 | 0 | 0 | > 10 | > 10 | > 10 | > 10 | > 10 | 90.3 | 94.3 | 92.1 | 98.2 | 95.3 | 107 | 104 | 101 | 98.5 | 97.3 | 107 | 105 | 102 | 96.1 | 94 | 108 | 97.8 | 93.3 | 99.1 | 93.8 | 98 | 103 | 102 | 98.8 | 95.2 |
| CC1=NN=C(c2ccc(N)cc2)c2cc3c(cc2C1)OCO3 | 0.4 | 0 | 0 | 0 | 0 | > 10 | > 10 | > 10 | > 10 | > 10 | 95.7 | 100 | 107 | 102 | 81 | 94.5 | 102 | 98.4 | 104 | 100 | 109 | 93.2 | 104 | 97.9 | 106 | 107 | 88.2 | 103 | 87.6 | 95.1 | 93.3 | 93.9 | 99.3 | 96.8 | 94 |
| Cc1ccc(S(=O)(=O)n2c(N)nc3ccccc32)cc1 [ML130] | 0 | 0 | 0 | 0 | 0 | > 10 | > 10 | > 10 | > 10 | > 10 | 107 | 97 | 107 | 101 | 90.5 | 103 | 108 | 103 | 109 | 96.2 | 98 | 107 | 111 | 100 | 104 | 103 | 89.2 | 99.5 | 101 | 103 | 104 | 108 | 105 | 103 | 97.3 |
| C1CCC(/N=C(\NC23CC4CC(CC(C4)C2)C3)N2CCOCC2)CC1 | 0 | 0 | 0 | 0 | 0 | > 10 | > 10 | > 10 | > 10 | > 10 | 101 | 91.7 | 102 | 96.7 | 101 | 88.3 | 96 | 90.6 | 98.9 | 104 | 96.1 | 108 | 91.7 | 113 | 108 | 106 | 90.2 | 103 | 89 | 100 | 96.4 | 94.8 | 102 | 98.6 | 89.5 |
| CCOC(=O)[C@H](CCc1ccccc1)N[C@H]1CS[C@H](c2cccs2)CN(CC(=O)O)C1=O [temocapril] | 0 | 0 | 0 | 0 | 0 | > 10 | > 10 | > 10 | > 10 | > 10 | 99.4 | 95.8 | 93.2 | 93.3 | 105 | 98.8 | 105 | 109 | 91.3 | 97.8 | 103 | 98.6 | 108 | 96.7 | 112 | 93.8 | 108 | 95.5 | 103 | 102 | 97.7 | 101 | 94.2 | 99.2 | 95.4 |
| CN1C(=O)C(N2CCCCC2)S/C1=C\C(=O)O (stereo not given) [ozolinone] | 0 | 0 | 0 | 0 | 0 | > 10 | > 10 | > 10 | > 10 | > 10 | 113 | 96.7 | 92.1 | 105 | 114 | 97.1 | 103 | 97 | 102 | 117 | 89.5 | 107 | 104 | 87.1 | 105 | 102 | 93.9 | 94.1 | 93.5 | 95 | 95.5 | 97.5 | 102 | 99.6 | 100 |
| N[C@@H](Cn1oc(=O)[nH]c1=O)C(=O)O [L-quisqualic-acid] | 0 | 0 | 0 | 0 | 0 | > 10 | > 10 | > 10 | > 10 | > 10 | 99.1 | 94 | 91.9 | 97 | 97.5 | 101 | 100 | 98.7 | 96.8 | 102 | 89.7 | 99.1 | 91 | 89.8 | 107 | 87.9 | 96.2 | 100 | 93.1 | 94.9 | 99.2 | 104 | 101 | 101 | 95.7 |
